In the experiment the target is NfnB (PpNfnB) (Pseudomonas putida, UniProt Q88K59). Description: nitroreduction, HPLC-ICP-MS. The experiment is classed as biochemical. Particulars: 4 uM substrate, 1 uM enzyme, 0.2 mM NADPH, 25 uM FMN, pH 7.0, 37 °C.

From paper PMC7606800 (The Science of the total environment, 2020) come the findings set out here.

SMILES strings stand for the structures.

On to `O=[N+]([O-])c1ccc([As](=O)(O)O)cc1` [Nit(V), 4-nitrophenylarsonic acid], for which the “nitroreduction, HPLC-ICP-MS” value is given as “NfnB also reduces Nit(V) to p-ASA(V)”.
